Assays:
HMG-CoA reductase = test: In vitro determination of HMG-CoA reductase inhibitory activity; assay type: biochemical, rat; settings: for Relative Potency: Relative to compactin arbitrarily assigned a value of 100; for IC50: purified rat liver microsomal HMG-CoA reductase, 37° C., 40 minutes, pH 7.2
Protocol: The intrinsic HMG-CoA reductase inhibition activity of the claimed compounds is measured in the in vitro protocol described below:
The In Vitro Determination of HMG-CoA Reductase Activity in Liver and the In Vitro Testing of Inhibitors
The procedure to measure in vitro HMG-CoA reductase activity in rat liver involves two steps and is based upon the procedure of Alberts et al:^1
1. Preparation of liver microsomal pellets.
2. Assay of the pellet for HMG-CoA reductase activity.
Reference: 1. Alberts, et al., Proceedings of the National Academy of Science, Vol. 77, pp. 3957-61 (1980).
Microsomes are prepared from livers of 150-200 g male rats (Charles River) maintained for a week on ground chow containing 2.0% cholestyramine, a bile acid sequestrant. The rats are sacrificed by cervical dislocation, and the livers removed immediately and chilled on ice. All subsequent operation are carried out at 0°-5° C.
Buffer I (for homogenization)
Procedure: all operation at 4° C.
Purification of HMG-CoA Reductase from Microsomal Pellet
Procedure: all operations are carried out at room temperature
The complete assay system is in a total volume of 0.8 ml in phosphate buffer at pH 7.2 (100 mM) with the cofactors at the following concentrations: MgCl2 3 mM; NADP, 3 mM; glucose-6-phosphate, 10 mM; glucose-6-phosphate dehydrogenase (ED 1.1.1.49) 3.0 enzyme units; reduced glutathione, 50 mM; HMG-CoA (Glutaryl-3-^14 C) 0.2 mM (0.1 μCi) and enzyme suspension, 0.1 ml.
The frozen pellet (enzyme) is allowed to thaw at room temperature for 5 minutes and carefully mixed with a stirring rod to a slurry with 0.1 ml of phosphate buffer (pH 7.2) and then diluted to 2.0 ml with the buffer. A volume (0.1 ml) of enzyme suspension is added to each incubation tube. Compounds to be tested are diluted to an appropriate concentration and added in a volume to 10 μ before adding the enzyme. An "untreated-control" is run along with the compounds.
The complete system is placed in 16×125 mm screw-cap culture tubes and shaken uncapped in a 37° C. water bath for 40 minutes at 160 oscillations per minute. At the end of this period the reaction is stopped by the addition of 0.4 ml of 8N HCl. 3 Mg of unlabeled mevalonolactone in 0.1 ml H2 O is added and the tubes shaken as before for an additional 30 minutes at 37° C. to ensure lactonization of the biosynthetic mevalonate.
200 μl of reaction mixture are applied to Bio-Rex 5 column (5 cm in a Pasteur pipette). Elute three times with one ml each of water into a scintillation vial. Add 10 ml of Aquasol-2, shake and count.
Bio-Rex is an ion-exchange resin, obtained from Bio-Rad. It comes dry in the chloride form and only the 100-200 mesh should be used. It is swelled in water for several hours; any fine particles should be decanted off as these will impair the flow rate. The hydrated resin should be stored at 4° C.
Each assay includes 2 untreated controls plus a "killed control" (reaction is stopped immediately before incubation by addition of 0.4 ml of 8N HCl).
After subtracting killed control CPM from all samples, percent inhibition by the test compounds is calculated as follows: [formula]

[1] = Stability of the free hydroxy acid on standing; assay type: physicochemical
Protocol: The sodium salt of the compound II from Example 17 is redissolved in 2 ml of ethanol-water (1:1) and added to 10 ml of 1N hydrochloric acid from which the hydroxy acid is extracted with ethyl acetate. The latter solvent is washed once with water, dried, and removed in vacuo with a bath temperature not exceeding 30° C.

## C[C@H]1C=C2C=C[C@H](C)[C@H](CC[C@@H](O)C[C@@H](O)CC(=O)O)[C@H]2[C@@H](OC(=O)C(C)(C)CO)C1 [n=1, R=H, R1=CH3, R2=CH3, R3=H]
HMG-CoA reductase
  Relative Potency: 80
  IC50: 20 nM

## CC1C=C2C=CC(C)C(CCC(O)CC(O)CC(=O)O)C2C(OC(=O)C(C)(C)CCO)C1 [n=2, R=H, R1=CH3, R2=CH3, R3=H, 7-[1,2,6,7,8,8a(R)-Hexahydro-2(S),6(R)-dimethyl-8(S)-(2,2-dimethyl-4-hydroxybutyryloxy)naphthalenyl-1(S)]-3(R),5(R)-dihydroxyheptanoic acid]
[1]
  reversion of hydroxy acid to lactone: slowly reverts to the lactone on standing
HMG-CoA reductase
  Relative Potency: 64
  IC50: 15.6 nM

## CC(CCO)C(=O)O[C@H]1C[C@@H](C)C=C2C=C[C@H](C)[C@H](CC[C@@H](O)C[C@@H](O)CC(=O)O)[C@H]21 (stereo partly drawn) [n=2, R=H, R1=H, R2=CH3, R3=H]
HMG-CoA reductase
  Relative Potency: 30
  IC50: 40 nM

## C[C@H]1C=C2C=C[C@H](C)[C@H](CC[C@@H](O)C[C@@H](O)CC(=O)O)[C@H]2[C@@H](OC(=O)C(C)(C)CCCO)C1 [n=3, R=H, R1=CH3, R2=CH3, R3=H]
HMG-CoA reductase
  Relative Potency: 63
  IC50: 30 nM

Reference: patent US4851436A, “HMG-CoA reductase inhibitors” (Merck & Co., Inc., priority 1987, dated 1989)
